Experimental data published in US20190336494A1, “[…] COMPOUNDS FOR TREATING AGITATION” (Concert Pharmaceuticals, Inc., priority 2015, published 2019).

Columns and labels:
[1] = Metabolic stability of test compounds using human liver microsomes; type: in vitro ADME; settings: for half-life at 1 µM: human, pH 7.4, 1.0 mg/mL HLM, 1 μM test compound, 2 mM NADPH, 37° C., 0-30 minutes, read-out: Ave. t1/2 (n = 2), calculated half-life in human liver microsomes; for Change over non-deuterated compound (t1/2): vs Dimemorfan
Method: Example 4. Determination of Metabolic Stability of Test Compounds using Human Liver Microsomes. Human liver microsomes (20 mg/mL) were obtained from Xenotech, LLC (Lenexa, Kans.). β-nicotinamide adenine dinucleotide phosphate, reduced form (NADPH), magnesium chloride (MgCl2), and dimethyl sulfoxide (DMSO) were purchased from Sigma-Aldrich.
7.5 mM stock solutions of test compounds were prepared in DMSO. The 7.5 mM stock solutions were diluted to 50 μM in acetonitrile (ACN). The 20 mg/mL human liver microsomes were diluted to 1.25 mg/mL (1 mg/mL final) in 0.1 M potassium phosphate buffer, pH 7.4, containing 3 mM MgCl2. The diluted microsomes (375 μL) were added to wells of a 96-well polypropylene plate in triplicate. 10 μL of the 50 μM test compound was added to the microsomes and the mixture was pre-warmed for 10 minutes. Reactions were initiated by addition of 125 μL of pre-warmed NADPH solution. The final reaction volume was 0.5 mL and contained 1.0 mg/mL human liver microsomes, 1 μM test compound, and 2 mM NADPH in 0.1 M potassium phosphate buffer, pH 7.4, and 3 mM MgCl2. The reaction mixtures were incubated at 37° C., and 50 μL aliquots were removed at 0, 5, 10, 20, and 30 minutes and added to shallow 96-well plates which contained 50 μL of ice-cold ACN with internal standard to stop the reactions. The plates were stored at 4° C. for 20 minutes after which 100 μL of water was added to the wells of the plate before centrifugation to pellet precipitated proteins. Supernatants were transferred to another 96-well plate and analyzed for amounts of parent remaining by LC-MS/MS using an Applied Bio-systems API 4000 mass spectrometer.
7-ethoxy coumarin was used as a positive control.
The in vitro t1/2s for test compounds were calculated from the slopes of the linear regression of % parent remaining (In) vs incubation time relationship:
in vitro t 1/2=0.693/k, where k=-[slope of linear regression of % parent remaining(In) vs incubation time]
(§1) Data analysis was performed using Microsoft Excel Software.

[2] = Effect of quinidine on metabolic stability in extensive metabolizer human liver microsomes; type: in vitro ADME; settings: EM HLM
Method: Materials: Individual donor with extensive metabolizer human liver microsomes (EM HLM, 20 mg/mL) with CYP2D6 activity of 957±19 pmol/mg protein/min, genotyped for CYP2D6 allelic variant-CYP2D6*1/*2x2, were obtained from Xenotech, LLC (Lenexa, Kans.). β-nicotinamide adenine dinucleotide phosphate, reduced form (NADPH), magnesium chloride (MgCl2), dimethyl sulfoxide (DMSO), acetonitrile (ACN), quinidine, and dextromethorphan (DM) were purchased from Sigma-Aldrich. Dimemorfan and d6-dimemorfan (Compound 100) were synthesized by Adesis, Inc.
Determination of Metabolic Stability: 1.0 mg/mL stock solutions of test compounds dextromethorphan, dimemorfan, and d6-dimemorfan (Compound 100) were prepared in DMSO. The 1.0 mg/mL stock solutions were diluted to 10,000 ng/mL in acetonitrile (ACN). A 10 mM stock solution of quinidine was prepared in acetonitrile, which was then diluted further in acetonitrile to produce 20 μM, 10 μM, 5 μM, 2.5 μM, and 1.25 μM solutions of quinidine. The human liver microsomes were diluted to 1.25 mg/mL in 0.1 M potassium phosphate buffer, pH 7.4, containing 3 mM MgC12. The diluted microsomes were added to wells of a 96-well deep-well polypropylene plate in triplicate. A 5 μL aliquot of each 10,000 ng/mL test compound was added to the microsomes, and the mixture was pre-warmed at 37° C. for 7 minutes, then a 5 μL aliquot of each quinidine solution was added (except in control wells where no quinidine was added). Reactions were initiated by addition of pre-warmed NADPH solution to the mixture. The final reaction volume was 0.5 mL and contained 1.0 mg/mL human liver microsomes, 100 ng/mL of test compound, 0.2, 0.1, 0.05, 0.025, 0.0125, or 0 μM of quinidine, and 2 mM NADPH in 0.1 M potassium phosphate buffer, pH 7.4, and 3 mM MgCl2. The reaction mixtures were incubated at 37° C., and 50 μL aliquots were removed at 0, 15, 30, and 60 minutes and added to shallow-well 96-well plates which contained 50 μL of ice-cold ACN with internal standard to stop the reactions. The plates were stored at 4° C. for 20 minutes after which 100 μL of water was added to the wells of the plate before centrifugation to pellet precipitated proteins. Supernatants were transferred to another 96-well plate and analyzed for amounts of parent remaining by LC-MS/MS using an Applied Bio-systems mass spectrometer. Amount of parent remaining was quantified via standard curve.
The in vitro t1/2's for test compounds were calculated from the slopes of the linear regression of % parent remaining (In) vs. incubation time relationship. • in vitro t1/2=0.693/k • k=-[slope of linear regression of % parent remaining(In) vs incubation time]
The apparent intrinsic clearance was calculated using the following equation:
CLint (mL/min/kg)=(0.693/in vitro t1/2) (Incubation Volume/mg of microsomes)
(45 mg microsomes/gram of liver) (20 gm of liver/kg b.w.)
as §1

Compound | half-life at 1 µM [1] [min] | Change over non-deuterated compound (t1/2) [1] [%] | % Δ (D6-Dimemorfan/Dimemorfan), deuterium effect on half-life ([2]; Quinidine 0 μM) [%] | Ratio (D6-Dimemorfan/Dimemorfan) of Clint, app ([2]; Quinidine 0 μM) | % Δ (D6-Dimemorfan/Dimemorfan), deuterium effect on half-life ([2]; Quinidine 0.0125 μM) [%] | Ratio (D6-Dimemorfan/Dimemorfan) of Clint, app ([2]; Quinidine 0.0125 μM) | % Δ (D6-Dimemorfan/Dimemorfan), deuterium effect on half-life ([2]; Quinidine 0.025 μM) [%] | Ratio (D6-Dimemorfan/Dimemorfan) of Clint, app ([2]; Quinidine 0.025 μM) | % Δ (D6-Dimemorfan/Dimemorfan), deuterium effect on half-life ([2]; Quinidine 0.05 μM) [%] | Ratio (D6-Dimemorfan/Dimemorfan) of Clint, app ([2]; Quinidine 0.05 μM) | % Δ (D6-Dimemorfan/Dimemorfan), deuterium effect on half-life ([2]; Quinidine 0.1 μM) [%] | Ratio (D6-Dimemorfan/Dimemorfan) of Clint, app ([2]; Quinidine 0.1 μM) | % Δ (D6-Dimemorfan/Dimemorfan), deuterium effect on half-life ([2]; Quinidine 0.2 μM) [%] | Ratio (D6-Dimemorfan/Dimemorfan) of Clint, app ([2]; Quinidine 0.2 μM)
Cc1ccc2c(c1)[C@]13CCCC[C@@H]1[C@H](C2)N(C)CC3 [Dimemorfan, (+)-(9α, 13α, 14α)-3,17-dimethylmorphinan, reference compound] | 23.1 | – | – | – | – | – | – | – | – | – | – | – | – | –
[2H]C([2H])([2H])c1ccc2c(c1)[C@]13CCCC[C@@H]1[C@H](C2)N(C)CC3 [Compound 102, (+)-3-(Methyl-d3)-17-methyl-(9α, 13α, 14α)-morphinan] | 28 | 21 | – | – | – | – | – | – | – | – | – | – | – | –
[2H]C([2H])([2H])c1ccc2c(c1)[C@]13CCCC[C@@H]1[C@H](C2)N(C([2H])([2H])[2H])CC3 [Compound 100, (+)-3-(Methyl-d3)-17-(methyl-d3)-(9α, 13α, 14α)-morphinan] | 31.6 | 37 | 35 | 0.74 | 59 | 0.61 | 3 | 0.96 | 11 | 0.90 | 22 | 0.82 | −12 | 1.11
